Experimental data from patent US20020086885A1, “Pharmaceutical composition” (priority 1998, published 2002).
Counter-ions that a name gives are not always drawn.

Experiments:
[1] = test system: obese, diabetic KKA^y mice; details: cited from earlier work
[2] = test system: obese rats; details: given together with troglitazone; cited from earlier work
[3] = test system: noninsulin-dependent diabetic mellitus (NIDDM) patients; assay: Concomitant administration of pioglitazone hydrochloride and mazindol in NIDDM patients; assay type: in vivo, human
Source text: Effects of concomitant administration of pioglitazone hydrochloride and mazindol in noninsulin-dependent diabetic mellitus (NIDDM) patients were studied.

SMILES: N=C(N)NCCC(=O)O [3-Guanidinopropionic acid]
- weight gain in mice treated with pioglitazone hydrochloride [1]: antagonizes in a dose-dependent manner

SMILES: C[C@H](Cc1ccc2c(c1)OC(C(=O)[O-])(C(=O)[O-])O2)NC[C@H](O)c1cccc(Cl)c1.[Na+].[Na+] [CL316243]
- weight gain in brown adipose tissues caused by troglitazone [2]: completely inhibited

SMILES: OC1(c2ccc(Cl)cc2)c2ccccc2C2=NCCN21 (stereo not shown) [mazindol]
- body weight change ([3]; one NIDDM patient, mazindol 0.5 mg/day oral with placebo, 12 weeks, baseline 60.0 kg): 0.00 kg

SMILES: CCc1ccc(CCOc2ccc(CC3SC(=O)NC3=O)cc2)nc1 (stereo not shown) [pioglitazone hydrochloride, 5-[4-[2-(5-ethyl-2-pyridyl)ethoxy]benzyl]-2,4-thiazolidinedione]
- body weight increased by ([3]; NIDDM patients, pioglitazone hydrochloride alone 45 mg/day oral, 12±2 weeks, means±standard deviation of 50 samples): 0.72 ± 2.06 kg
